According to US8501911B2, “Methods of reducing inflammation and mucus hypersecretion” (Biomarck Pharmaceuticals, Ltd, priority 1999, dated 2013):
Residues, ends and D or L forms follow the SMILES beside them. *: point of attachment. Myristoyl = CCCCCCCCCCCCCC(=O)*

Assays:
NHBE cells = assay: UTP-induced mucin secretion from NHBE cells (ELISA); assay type: cell-based, human; details: 15 min preincubation, then UTP 100 μM 2 h
Procedure: In Results-I-1D, NHBE cells were preincubated with the indicated inhibitor for 15 min and then stimulated with 100 μM UTP for 2 h. Secreted mucin in response to the treatment was collected and assayed by ELISA. Data are presented as mean±S.E. (n=6 at each point).
UTP is a well defined pathophysiologically relevant mucin secretagogue. Lethem ct al., Am. J. Respir. Cell Mol. Biol. 9, 315-322 (1993). […] To determine whether PKC and PKG were involved in regulation of mucin secretion in response to a pathophysiological stimulus, effects of PKC/PKG inhibitors on UTP-induced mucin secretion were investigated. NHBE cells were preincubated with various inhibitors for 15 min and then exposed to UTP (100 μM) plus the inhibitor for 2 h. The secreted mucin was measured by ELISA. […] Apparently, mucin secretion in NHBE cells may be regulated by a signaling mechanism involving both PKC and PKG.
Peptide Blocking Studies—NHBE cells were preincubated with either the MANS or the RNS peptide (1-100 μM) for 15 min, and then PMA (100 nM)+8-Br-cGMP (1 μM) or UTP (100 μM) was added, and cells were incubated for an additional 15 min or 2 h. respectively. Mucin secretion was measured by ELISA and experimental results are designated as Results-I-2B-1 and Results-I-2B-2, as follows.
PP2A is an essential component of the mucin secretory pathway. NHBE cells were preincubated with the indicated concentration of fostriecin, okadaic acid (500 nM), or medium alone for 15 min and then stimulated with PMA (100 nM)+8-Br-cGMP (1 μM) for 15 min or with UTP (100 μM) for 2 h. Secreted mucin was measured by ELISA. […] Thus, dephosphorylation of MARCKS by a PKG-activated PP2A appears to be an essential component of the signaling pathway leading to mucin granule exocytosis.
Measurement of Mucin Secretion by ELISA—Before collection of “base line” and “test” mucin samples, the accumulated mucus at the apical surface of the cells was removed by washing with phosphate-buffered saline, pH 7.2. To collect the base-line secretion, cells were incubated with medium alone, and secreted mucin in the apical medium was collected and reserved. Cells were rested for 24 h and then exposed to medium containing the selected stimulatory and/or inhibitory reagents (or appropriate controls), after which secreted mucin was collected and reserved as the test sample. Incubation times for the base line and the test were the same but varied depending on the test reagent utilized. Both base line and test secretions were analyzed by ELISA using an antibody capture method as known in the art. See, e.g., Harlow et al., Antibodies: A Laboratory Manual, pp. 570-573, Cold Spring Harbor Laboratory, Cold Spring Harbor, N.Y. (1988). The primary antibody for this assay was 17Q2 (Babco, Richmond, Calif.), a monoclonal antibody that reacts specifically with a carbohydrate epitope on human airway mucins. The ratio of test/base-line mucin, which is similar to a “secretory index”, was used to quantify mucin secretion, allowing each culture dish to serve as its own control and thus, minimizing deviation caused by variability among culture wells. Wright et al., Am. J. Physiol. 271, L854-L861 (1996). Levels of mucin secretion were reported as percentage of the medium control.
These experiments were carried out similarly to those described in Example 7. To test for stimulated secretion, the cells were exposed apically and basolaterally to uridine 5′-triphosphate (UTP) at a concentration of 0.1 mM in media. Cells were pre-incubated for 15 minutes with the MANS peptide and test cultures were then co-incubated with the MANS peptide and UTP for 45 minutes.
NHBE cells were pre-incubated with okadaic acid (500 nM) for 15 min at 37° C./5% CO2, then stimulated with PMA (100 nM)+8-Br-cGMP (1 μM) for 15 min, or with UTP (0.1 mM) for 2 hours. Secreted mucin in the apical medium was collected and assayed by ELISA. […]

[1] = system: MARCKS-related mucus secretion; assay: Inhibition of MARCKS-related mucus (mucin) secretion, Table 1; assay type: cell-based; details: at 100 μM of test peptide

Structure (SMILES): CCCCCCCCCCCCCC(=O)NCC(=O)N[C@H](C(=O)N[C@@H](C)C(=O)N1CCC[C@H]1C(=O)N[C@@H](C)C(=O)N[C@@H](C)C(=O)N[C@@H](CCC(=O)O)C(=O)NCC(=O)N[C@@H](C)C(=O)NCC(=O)N[C@@H](C)C(=O)N[C@@H](CCC(=O)O)C(=O)N[C@H](C(=O)N[C@@H](CCCCN)C(=O)N[C@@H](CCCNC(=N)N)C(=O)N[C@@H](C)C(=O)N[C@@H](CO)C(=O)N[C@@H](C)C(=O)N[C@@H](CCC(=O)O)C(=O)N[C@@H](C)C(=O)N[C@@H](CCCCN)C(=O)N[C@@H](CCC(N)=O)C(=O)N[C@@H](C)C(=O)N[C@@H](Cc1ccccc1)C(=O)O)C(C)C)[C@@H](C)O [RNS peptide, reference compound] (Myristoyl-GTAPAAEGAGAEVKRASAEAKQAF-OH; C-terminus assumed)
- Mucin secretion as percent of control (NHBE cells; peptide 1 μM): 154%
- Mucin secretion as percent of control (NHBE cells; peptide 100 μM): 158%
- Mucin secretion as percent of control (NHBE cells; test agent 10 μM): 155%
- % Inhibition Mucin [1]: 0%
